Broadly, the IC50 is the concentration that gives 50% inhibition.

This is an account of results in patent publication US8518958B2, “Pyrido [2,3-D] pyrimidines and their use as kinase inhibitors” (Forma Therapeutics, Inc., priority 2006, dated 2013).

One test has as its target B-Raf delta1-415 (Homo sapiens, UniProt P15056). Kind of test: B-Raf kinase inhibition (MAPH filter plate, 33P-ATP, MEK1 substrate). The following applies: read-out: Biochemical IC50 B-Raf. In short, it runs like this: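 IC50 values come from dilution series (top 10 μM) measured by scintillation counting of 33P-labelled MEK1 retained on H3PO4-washed filters. Reactions ran 1 h at room temperature in pH 7.0 Mops buffer with MgCl2, MnCl2 and DTT, using 12.5 μCi/ml [γ-33P]ATP and B-Raf delta1-415 titrated to 50% turnover.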

The subject of a further test is HT-29 tumor cells. Kind of test: Anti-proliferative activity, SRB assay. The format is cell-based, human. The following applies: Homo sapiens, HT-29, 72 h, 72 hours exposure, read-out: CELLULAR IC50 HT-29. In short, it runs like this: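 IC50 derived from % inhibition relative to DMSO controls, measured by sulforhodamine B binding (OD570) after TCA fixation. Cells (3,000-15,000 per well) were seeded a day ahead, then treated with graded compound concentrations for 72 hours.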
(Sulforhodamine B stains cellular protein and so reports cell mass.)

B-Raf delta1-415, sequence (P15056 416-766): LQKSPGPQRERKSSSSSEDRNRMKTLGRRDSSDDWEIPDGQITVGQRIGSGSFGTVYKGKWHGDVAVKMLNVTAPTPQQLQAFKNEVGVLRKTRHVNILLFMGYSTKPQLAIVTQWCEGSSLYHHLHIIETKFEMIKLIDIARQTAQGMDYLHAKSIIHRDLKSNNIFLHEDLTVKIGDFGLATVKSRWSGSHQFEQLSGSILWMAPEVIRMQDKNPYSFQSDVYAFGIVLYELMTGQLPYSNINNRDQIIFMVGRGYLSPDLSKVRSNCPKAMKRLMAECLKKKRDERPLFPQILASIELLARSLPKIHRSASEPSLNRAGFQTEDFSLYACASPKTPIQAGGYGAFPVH

Consider `COCCN(C)C(=O)c1cc(Nc2ncc3cc(-c4c(Cl)cccc4Cl)c(=O)n(OCC4CCOCC4)c3n2)cn1C` [Compound 177, 6-(2,6-dichlorophenyl)-2-(5-N-(2-methoxyethyl)-N-methyl-aminocarbonyl-1-methyl-pyrrol-3-yl)-amino-8-(tetrahydropyran-4-ylmethyl)oxy-pyrido[2,3-d]pyrimidin-7-one], for which the values for the IC50 at B-Raf delta1-415 and in the test with HT-29 tumor cells were less than 500 nM and less than 1000 nM, respectively.

For `COn1c(=O)c(-c2c(F)cccc2Cl)cc2cnc(Nc3ccc(C4CCNCC4)cc3)nc21` [Compound 222, 6-(2-Chloro-6-fluorophenyl)-8-methoxy-2-(4-(piperidin-4-yl)phenyl)-amino-pyrido[2,3-d]pyrimidin-7-one], the concentration for half-maximal inhibition (IC50) at B-Raf delta1-415 is less than 100 nM; in the test on HT-29 tumor cells, less than 1000 nM.

As to `O=c1c(-c2c(F)cccc2Cl)cc2cnc(Nc3ccccc3)nc2n1OCc1cccnc1` [Compound 153, 6-(2-Chloro-6-fluorophenyl)-2-phenylamino-8-(pyrid-3-ylmethyl)oxy-pyrido[2,3-d]pyrimidin-7-one], the IC50 was less than 500 nM on B-Raf delta1-415 and less than 1000 nM with HT-29 tumor cells.

Take `CCN(CC)CCNC(=O)c1cc(Nc2ncc3cc(-c4c(C)cccc4C)c(=O)n(OC)c3n2)cn1C` [Compound 84, 6-(2,6-Dimethylphenyl)-2-(5-(2-diethylaminoethyl)aminocarbonyl-1-methyl-pyrrol-3-yl)-amino-8-methoxy-pyrido[2,3-d]pyrimidin-7-one]: the IC50 at B-Raf delta1-415 was less than 500 nM; with HT-29 tumor cells, less than 1000 nM.

`CCN1CCN(c2ccc(Nc3ncc4cc(-c5c(Cl)cccc5Cl)c(=O)n(OC)c4n3)cc2)CC1` [Compound 189, 6-(2,6-Dichlorophenyl)-2-(4-(4-ethylpiperazino)phenyl)-amino-8-methoxy-pyrido[2,3-d]pyrimidin-7-one]: the IC50 is less than 500 nM at B-Raf delta1-415 and less than 1000 nM in the test on HT-29 tumor cells.

Consider `COCCN(C)C(=O)c1cc(Nc2ncc3cc(-c4c(Cl)cccc4Cl)c(=O)n(OC)c3n2)cn1C` [Compound 154, 6-(2,6-Dichlorophenyl)-8-methoxy-2-(5-N-(2-methoxyethyl)-N-methyl-aminocarbonyl-1-methyl-pyrrol-3-yl)-amino-pyrido[2,3-d]pyrimidin-7-one], for which the IC50 was less than 500 nM on B-Raf delta1-415 and less than 1000 nM with HT-29 tumor cells.

With `COn1c(=O)c(-c2c(Cl)cccc2Cl)cc2cnc(Nc3ccc(CN4CCN(C(C)C)CC4)cc3)nc21` [Compound 166], the IC50 was less than 500 nM on B-Raf delta1-415 and less than 1000 nM in the test with HT-29 tumor cells.

Consider `O=c1ccc2cnc(Nc3ccc(N4CCOCC4)cc3)nc2n1OC1CCCC1` [Compound 226], for which the results for the half-maximal inhibitory concentration (IC50) at B-Raf delta1-415 and in the test on HT-29 tumor cells were more than 1000 nM and less than 10000 nM, respectively.

Regarding `COn1c(=O)c(-c2c(F)cccc2Cl)cc2cnc(Nc3ccc(N4CCNCC4)cc3)nc21` [Compound 198, 6-(2-Chloro-6-fluorophenyl)-8-methoxy-2-(4-piperazinophenyl)-amino-pyrido[2,3-d]pyrimidin-7-one], the figures for the IC50 on B-Raf delta1-415 and with HT-29 tumor cells were less than 100 nM and less than 1000 nM, respectively.

For the compound `COn1c(=O)c(-c2c(Cl)cccc2Cl)cc2cnc(Nc3cccc(S(=O)(=O)N4CCOCC4)c3)nc21` [Compound 127, 6-(2,6-Dichlorophenyl)-2-(3-morpholinosulfonylphenyl)-amino-8-methoxy-pyrido[2,3-d]pyrimidin-7-one], the concentration for half-maximal inhibition (IC50) on B-Raf delta1-415 was less than 500 nM; with HT-29 tumor cells it was less than 1000 nM.

Take `COCCOn1c(=O)c(-c2c(F)cccc2Cl)cc2cnc(Nc3ccc(N4CCNCC4)cc3)nc21` [Compound 216, 6-(2-Chloro-6-fluorophenyl)-8-(2-methoxyethyl)oxy-2-(4-piperazinophenyl)-amino-pyrido[2,3-d]pyrimidin-7-one]: the IC50 on B-Raf delta1-415 is less than 500 nM; with HT-29 tumor cells, less than 1000 nM.

On to `O=c1c(-c2c(F)cccc2Cl)cc2cnc(Nc3ccc(N4CCNCC4)cc3)nc2n1OCC1CCOCC1` [Compound 215], for which the 50% inhibitory concentration (IC50) at B-Raf delta1-415 is less than 100 nM; in the test on HT-29 tumor cells, less than 1000 nM.

Regarding `CNS(=O)(=O)Cc1ccc(Nc2ncc3cc(-c4c(Cl)cccc4Cl)c(=O)n(OC)c3n2)cc1` [Compound 125, 6-(2,6-dichlorophenyl)-8-methoxy-2-(4-(methylaminosulfonylmethyl)phenyl)-amino-pyrido[2,3-d]pyrimidin-7-one], the results for the IC50 at B-Raf delta1-415 and in the test on HT-29 tumor cells were less than 100 nM and less than 1000 nM, respectively.

For the compound `COn1c(=O)c(-c2c(Cl)cccc2Cl)cc2cnc(Nc3ccc(C(C)=O)cc3)nc21` [Compound 192, 2-(4-Acetylphenyl)amino-6-(2,6-dichlorophenyl)-8-methoxy-pyrido[2,3-d]pyrimidin-7-one], the IC50 is less than 500 nM at B-Raf delta1-415 and less than 1000 nM in the test on HT-29 tumor cells.

With `COn1c(=O)c(-c2c(C)cccc2C)cc2cnc(Nc3cc(C(=O)NCCN4CCCC4)n(C)c3)nc21` [Compound 87, 6-(2,6-Dimethylphenyl)-8-methoxy-2-(5-(2-pyrrolidinoethyl)aminocarbonyl-1-methyl-pyrrol-3-yl)-amino-pyrido[2,3-d]pyrimidin-7-one], the IC50 at B-Raf delta1-415 is less than 500 nM; in the test with HT-29 tumor cells it was less than 1000 nM.

On to `COn1c(=O)c(-c2c(Cl)cccc2Cl)cc2cnc(Nc3cccc(CN4CCC(F)(F)C4)c3)nc21` [Compound 183, 6-(2,6-Dichlorophenyl)-2-(3-(3,3-difluoropyrrolidinomethyl)phenyl)-amino-8-methoxy-pyrido[2,3-d]pyrimidin-7-one], for which the half-maximal inhibitory concentration (IC50) is more than 1000 nM on B-Raf delta1-415 and less than 1000 nM in the test with HT-29 tumor cells.

In the case of `COn1c(=O)c(-c2c(C)cccc2C)cc2cnc(Nc3cc(C(=O)NCCO)n(C)c3)nc21` [Compound 83, 6-(2,6-Dimethylphenyl)-2-(5-(2-hydroxyethyl)aminocarbonyl-1-methyl-pyrrol-3-yl)-amino-8-methoxy-pyrido[2,3-d]pyrimidin-7-one], the IC50 at B-Raf delta1-415 is less than 500 nM; with HT-29 tumor cells, less than 1000 nM.

With `COn1c(=O)c(-c2c(Cl)cccc2Cl)cc2cnc(Nc3ccc(Br)cc3)nc21` [Compound 191, 2-(4-Bromophenyl)amino-6-(2,6-dichlorophenyl)-8-methoxy-pyrido[2,3-d]pyrimidin-7-one], the IC50 was more than 1000 nM on B-Raf delta1-415 and less than 10000 nM in the test on HT-29 tumor cells.

For `COn1c(=O)c(-c2c(Cl)cccc2Cl)cc2cnc(Nc3ccc(C)cc3)nc21` [Compound 150, 6-(2,6-Dichlorophenyl)-2-(4-methylphenyl)-amino-8-methoxy-pyrido[2,3-d]pyrimidin-7-one], the figures for the IC50 on B-Raf delta1-415 and in the test on HT-29 tumor cells were more than 1000 nM and less than 10000 nM, respectively.

Consider `COn1c(=O)c(-c2c(Cl)cccc2Cl)cc2cnc(Nc3ccc(CN4CCC4)cc3)nc21` [Compound 201, 2-(4-(1-azacyclobutyl)methylphenyl)-amino-6-(2,6-dichlorophenyl)-8-methoxy-pyrido[2,3-d]pyrimidin-7-one], for which the 50% inhibitory concentration (IC50) on B-Raf delta1-415 is less than 500 nM; in the test on HT-29 tumor cells, less than 1000 nM.

For `COn1c(=O)c(-c2c(Cl)cccc2Cl)cc2cnc(Nc3cc(C(=O)N(C)CCOC(=O)c4ccccc4)n(C)c3)nc21` [Compound 141], the IC50 on B-Raf delta1-415 was less than 500 nM; in the test on HT-29 tumor cells, less than 1000 nM.

Turning to `COCCOn1c(=O)c(-c2c(F)cccc2Cl)cc2cnc(Nc3ccc(N4CCOCC4)cc3)nc21` [Compound 121], the IC50 at B-Raf delta1-415 was less than 100 nM; with HT-29 tumor cells, less than 1000 nM.

With `COn1c(=O)c(-c2c(Cl)cccc2Cl)cc2cnc(Nc3ccc(Cn4cncn4)cc3)nc21` [Compound 104, 6-(2,6-Dichlorophenyl)-8-methoxy-2-(4-(1,2,4-triazol-1-yl)methylphenyl)-amino-pyrido[2,3-d]pyrimidin-7-one], the half-inhibitory concentration (IC50) on B-Raf delta1-415 is less than 500 nM; in the test on HT-29 tumor cells, less than 1000 nM.
